These results are taken from patent publication EP0509470A2, “Therapeutical compositions having anti-HIV activity consisting of 2',3'-didesoxyadenosine and substances inhibiting adenosine deaminase” (REPLA CHEMICAL LTD., priority 1991, dated 1992).

Series [1] can be described thus: Cytotoxicity evaluation (cell number in Coulter after 96 hours). The format is cell-based. Conditions: human. The procedure: (§1) The cellular lines utilized in this study were: H9, T lymphocytes, CD4+, permissive for the HIV replication but partially resistant to its cytopathic effect; • H9/IIIB, H9 lymphocytes chronically infected by HTLV/IIIB virus; • MT4 and C8166, T lymphocytes lines, CD4+ permissive for HIV replication. In C8166 the virus induces a cytopathic effect which results in the formation of syncytia easily visible at the optical microscope.
(§2) All the lymphoid lines were cultured in RPMI 1640 containing 10 % of non decomplemented fetal calf serum (FCS), penicillin 100U/mL and streptomycin 100 µg/mL and incubated at 37 °C in 5% CO₂.
For the cytotoxicity evaluation, the cells were resuspended in a culture medium at a density of 1 x 10⁵/mL, were incubated in the absence or in the presence of various concentration of the compounds to be studied and their number was determined in Coulter after 96 hours of incubation at 37 °C.

Series [2] deals with HIV-1. Briefly: Inhibition of infecting HIV production in C8166 cells (end point titration). The format is cell-based. Conditions: C8166 cells; compound alone; Table 2; read-out: ED90 (the source's name). On the procedure:
as §1, §2
(§3) HIV virus was obtained by H9/IIIB cells surnatant taken at the end of their exponential growth.
(§4) The titre of several stock preparations was comprised between 2 and 5 x 10⁵ Cell Culture Infection Dose 50 (CCID50)/mL.
(§5) For the evaluation of the anti-HIV activity the inhibition of infecting HIV production was determined as follows.
(§6) C8166 or MT4 cells sown at a density of 1 x 10⁶ cells/ml, were infected with a multiplicity of infection (m.o.i.) comprised between 0.05 and 0.02 CCID50/cell. After two hours of incubation at 37 °C and subsequent removal of the inoculum, the cells were washed three times and resuspended at a density of 1 x 10⁵ cells/ml. in the absence or in the presence of the compounds to be investigated.
(§7) After 4 days of incubation at 37 °C the presence of syncytia was evaluated at the optical microscope and the quantity of infecting HIV present in the surnatant of the cultures was determined by end point titration.
(§8) HIV titration was carried out in C8166 cells sown at a density of 1 x 10⁵ cells/mL/well, by the limit dilution method (dilution ratio 1:2, every dilution being sown in quadruplicate).
(§9) After four days of incubation, the syncytia presence was evaluated at the microscope and the viral titre was calculated by the Reed and Muench method.

Series [3] relates to HIV-1. Briefly: Inhibition of infecting HIV production in MT4 cells (end point titration). The format is cell-based. Conditions: MT4 cells; compound alone; Table 2; read-out: ED90 (the source's name). The procedure: as §1, §2, §3, §4, §5, §6, §7, §8, §9
A further series deals with human T lymphocytes. Particulars: G. Ahluwalia et al. 1987; cited from earlier work.

Usually CC50 stands for the concentration giving 50% cytotoxicity. Low values mean greater toxicity to the cells, high ones lower toxicity to the cells.

In the case of `OC[C@@H]1CC[C@H](n2cnc3c(O)ncnc32)O1` [ddIno, 2',3'-didesoxy-inosine, reference compound], the CC50 at 96 h in series [1] (c8166 cells) and in series [1] (mt4 cells) was above 1000 µM throughout. Moreover, the MNTC at 96 h was above 1 mM in series [1] (c8166 cells, MNTD); at least 1 mM in series [1] (c8166 cells, maxima non cytotoxic doses (MNTD)); above 1 mM in series [1] (mt4 cells, MNTD); at least 1 mM in series [1] (mt4 cells, maxima non cytotoxic doses (MNTD)). Also, the EC90 in the series with HIV-1 [2] was 28 µM; in the series with HIV-1 [3], 11 µM. Moreover, the “entry into the cells, less efficient than that of ddAdo” value in the series with human T lymphocytes is given as 4-6 time.
